How the values were obtained:
[1] = tested on: Hepatitis C virus; assay: Antiviral activity against HCV 1a infected in human hepatoma cells by replicon assay; assay type: functional, organism-based, Hepacivirus hominis; conditions: subtype 1a
[2] = tested on: Hepatitis C virus; assay: Antiviral activity against HCV 1b infected in human hepatoma cells by replicon assay; assay type: functional, organism-based, Hepacivirus hominis; conditions: genotype 1b
[3] = Inhibition of HCV 1a NS3/4A protease by FRET assay; design: species or system Hepatitis C virus subtype 1a

SMILES	EC50 [1]	EC50 [2]	IC50 [3]
CC(C)(C)[C@H](NC(=O)OC1CCCC1)C(=O)N1C[C@H](OC(=O)N2Cc3cccc(F)c3C2)C[C@H]1C(=O)N[C@@H]1BOCC1	8700 nM	> 10000 nM	
CC1(C)CCCCc2cccc3c2CN(C3)C(=O)O[C@@H]2C[C@@H](C(=O)N[C@@H]3BOCC3)N(C2)C(=O)[C@H](C(C)(C)C)NC(=O)OC1	780 nM	354 nM	43 nM
C[C@H]1COB[C@H]1NC(=O)[C@@H]1C[C@@H]2CN1C(=O)[C@H](C(C)(C)C)NC(=O)OCC(C)(C)CCCCc1cccc3c1CN(C3)C(=O)O2	1900 nM	1700 nM	130 nM
CC1(C)CCCCc2cccc3c2CN(C3)C(=O)O[C@@H]2C[C@@H](C(=O)N[C@@H]3BOC[C@@H]3C3CC3)N(C2)C(=O)[C@H](C(C)(C)C)NC(=O)OC1	980 nM	4200 nM	110 nM
CC1(C)CCCCc2cccc3c2CN(C3)C(=O)O[C@@H]2C[C@@H](C(=O)N[C@H]3CCCOB3O)N(C2)C(=O)[C@H](C(C)(C)C)NC(=O)OC1	1300 nM	2800 nM	62 nM
CC1(C)CCCCc2cccc3c2CN(C3)C(=O)O[C@@H]2C[C@@H](C(=O)N[C@H]3CCCCOB3O)N(C2)C(=O)[C@H](C(C)(C)C)NC(=O)OC1	380 nM	200 nM	47 nM
CC1(C)CCCCc2cccc3c2CN(C3)C(=O)O[C@@H]2C[C@@H](C(=O)N[C@H]3BOCC3)N(C2)C(=O)[C@H](C(C)(C)C)NC(=O)OC1	11000 nM	> 50000 nM	1400 nM
C[C@@H]1COB[C@@H]1NC(=O)[C@@H]1C[C@@H]2CN1C(=O)[C@H](C(C)(C)C)NC(=O)OCC(C)(C)CCCCc1cccc3c1CN(C3)C(=O)O2	33000 nM	30000 nM	25000 nM
CC1(C)CCCCc2cccc3c2CN(C3)C(=O)O[C@@H]2C[C@@H](C(=O)N[C@@H]3CCCOB3O)N(C2)C(=O)[C@H](C(C)(C)C)NC(=O)OC1	12000 nM	> 25000 nM	1300 nM
CC1(C)CCCCc2cccc3c2CN(C3)C(=O)O[C@@H]2C[C@@H](C(=O)N[C@@H]3CCCCOB3O)N(C2)C(=O)[C@H](C(C)(C)C)NC(=O)OC1	3700 nM	3900 nM	300 nM
CC[C@@H]1C[C@]1(NC(=O)[C@@H]1C[C@@H]2CN1C(=O)[C@H](C(C)(C)C)NC(=O)OCC(C)(C)CCCCc1cccc3c1CN(C3)C(=O)O2)C(=O)NS(=O)(=O)C1CC1	≤ 1 nM	≤ 1 nM	

Reference: ChEMBL document CHEMBL1255559, “Novel macrocyclic HCV NS3 protease inhibitors derived from α-amino cyclic boronates” (Bioorg Med Chem Lett, 2010)
